Laboratory results from PubChem BioAssay AID2060507 (Molecular Pharmacology Branch, DTP, NCI, 2025).

Tested on: 519858-162-T-J1-PDC complex spheroid viability
Assay: Anticancer human tumor 519858-162-T-J1-PDC patient-derived colon adenocarcinoma cell line growth inhibition [GQUAD]
Details: for IC50: curve of first compound; for viability, T/C: stronger effect = lower value
Outline: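 Tumor cells were grown as complex spheroids with HUVEC endothelial cells and mesenchymal stem cells as stroma. G-quadruplex stabilizers were combined with targeted agents over half-log dilutions from near the clinical Cmax, or from 10 microM.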

[1] = second compound 0.0316 µM, first compound 0.0316 µM
[2] = second compound 0.0316 µM, first compound 0.1 µM
[3] = second compound 0.0316 µM, first compound 0.316 µM
[4] = second compound 0.0316 µM, first compound 1 µM
[5] = second compound 0.0316 µM, first compound 3.16 µM
[6] = second compound 0.0316 µM, first compound 10 µM
[7] = second compound 0.1 µM, first compound 0.0316 µM
[8] = second compound 0.1 µM, first compound 0.1 µM
[9] = second compound 0.1 µM, first compound 0.316 µM
[10] = second compound 0.1 µM, first compound 1 µM
[11] = second compound 0.1 µM, first compound 3.16 µM
[12] = second compound 0.1 µM, first compound 10 µM
[13] = second compound 0.316 µM, first compound 0.0316 µM
[14] = second compound 0.316 µM, first compound 0.1 µM
[15] = second compound 0.316 µM, first compound 0.316 µM
[16] = second compound 0.316 µM, first compound 1 µM
[17] = second compound 0.316 µM, first compound 3.16 µM
[18] = second compound 0.316 µM, first compound 10 µM
[19] = second compound 1 µM, first compound 0.0316 µM
[20] = second compound 1 µM, first compound 0.1 µM
[21] = second compound 1 µM, first compound 0.316 µM
[22] = second compound 1 µM, first compound 1 µM
[23] = second compound 1 µM, first compound 3.16 µM
[24] = second compound 1 µM, first compound 10 µM
[25] = second compound 3.16 µM, first compound 0.0316 µM
[26] = second compound 3.16 µM, first compound 0.1 µM
[27] = second compound 3.16 µM, first compound 0.316 µM
[28] = second compound 3.16 µM, first compound 1 µM
[29] = second compound 3.16 µM, first compound 3.16 µM
[30] = second compound 3.16 µM, first compound 10 µM
[31] = second compound 10 µM, first compound 0.0316 µM
[32] = second compound 10 µM, first compound 0.1 µM
[33] = second compound 10 µM, first compound 0.316 µM
[34] = second compound 10 µM, first compound 1 µM
[35] = second compound 10 µM, first compound 3.16 µM
[36] = second compound 10 µM, first compound 10 µM
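Also: spheroids exposed to compounds for 7 days.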
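For viability, T/C in this document: 100% = DMSO vehicle control viability.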

C=CC(=O)N1CCN(c2nc(=O)n(-c3c(C)ccnc3C(C)C)c3nc(-c4c(O)cccc4F)c(F)cc23)C(C)C1 (stereo not drawn) + Cc1cnc(CNC(=O)c2c(=O)c3ccc(N4CCCN(C)CC4)nc3n3c2sc2ccccc23)cn1
IC50 (second compound 0.0316 µM): > 10000 nM
IC50 (second compound 0.1 µM): > 10000 nM
IC50 (second compound 0.316 µM): > 10000 nM
IC50 (second compound 1 µM): 2440 nM
IC50 (second compound 3.16 µM): < 31.6 nM
IC50 (second compound 10 µM): 72.9 nM
viability, T/C [1]: 74.2%
viability, T/C [2]: 91.8%
viability, T/C [3]: 77.1%
viability, T/C [4]: 89.3%
viability, T/C [5]: 46.3%
viability, T/C [6]: 103%
viability, T/C [7]: 97%
viability, T/C [8]: 70.4%
viability, T/C [9]: 109%
viability, T/C [10]: 92.3%
viability, T/C [11]: 76.3%
viability, T/C [12]: 82.9%
viability, T/C [13]: 54.2%
viability, T/C [14]: 53%
viability, T/C [15]: 55.9%
viability, T/C [16]: 57%
viability, T/C [17]: 65.2%
viability, T/C [18]: 76.6%
viability, T/C [19]: 69.1%
viability, T/C [20]: 56.3%
viability, T/C [21]: 68.2%
viability, T/C [22]: 56.9%
viability, T/C [23]: 40.3%
viability, T/C [24]: 45.5%
viability, T/C [25]: 46.5%
viability, T/C [26]: 49.6%
viability, T/C [27]: 41.8%
viability, T/C [28]: 55.8%
viability, T/C [29]: 56%
viability, T/C [30]: 42.9%
viability, T/C [31]: 60%
viability, T/C [32]: 46.4%
viability, T/C [33]: 42.8%
viability, T/C [34]: 48.2%
viability, T/C [35]: 48.7%
viability, T/C [36]: 42.8%

CCc1c2c(nc3ccc(O)cc13)-c1cc3c(c(=O)n1C2)COC(=O)[C@]3(O)CC + Cc1cnc(CNC(=O)c2c(=O)c3ccc(N4CCCN(C)CC4)nc3n3c2sc2ccccc23)cn1
IC50 (second compound 0.0316 µM): > 316 nM
IC50 (second compound 0.1 µM): > 316 nM
IC50 (second compound 0.316 µM): > 316 nM
IC50 (second compound 1 µM): > 316 nM
IC50 (second compound 3.16 µM): < 0.999 nM
IC50 (second compound 10 µM): < 0.999 nM
viability, T/C (second compound 0.0316 µM, first compound 0.000999 µM): 121%
viability, T/C (second compound 0.0316 µM, first compound 0.00316 µM): 57.5%
viability, T/C (second compound 0.0316 µM, first compound 0.00999 µM): 81.9%
viability, T/C [1]: 67.6%
viability, T/C (second compound 0.0316 µM, first compound 0.0999 µM): 74.8%
viability, T/C [3]: 64.7%
viability, T/C (second compound 0.1 µM, first compound 0.000999 µM): 67.5%
viability, T/C (second compound 0.1 µM, first compound 0.00316 µM): 105%
viability, T/C (second compound 0.1 µM, first compound 0.00999 µM): 89.3%
viability, T/C [7]: 55.3%
viability, T/C (second compound 0.1 µM, first compound 0.0999 µM): 61.1%
viability, T/C [9]: 48.2%
viability, T/C (second compound 0.316 µM, first compound 0.000999 µM): 95.1%
viability, T/C (second compound 0.316 µM, first compound 0.00316 µM): 94.8%
viability, T/C (second compound 0.316 µM, first compound 0.00999 µM): 66.2%
viability, T/C [13]: 67.2%
viability, T/C (second compound 0.316 µM, first compound 0.0999 µM): 65%
viability, T/C [15]: 69.1%
viability, T/C (second compound 1 µM, first compound 0.000999 µM): 66.6%
viability, T/C (second compound 1 µM, first compound 0.00316 µM): 42.9%
viability, T/C (second compound 1 µM, first compound 0.00999 µM): 72.2%
viability, T/C [19]: 55%
viability, T/C (second compound 1 µM, first compound 0.0999 µM): 75%
viability, T/C [21]: 80.4%
viability, T/C (second compound 3.16 µM, first compound 0.000999 µM): 35.9%
viability, T/C (second compound 3.16 µM, first compound 0.00316 µM): 48.5%
viability, T/C (second compound 3.16 µM, first compound 0.00999 µM): 47.8%
viability, T/C [25]: 47.6%
viability, T/C (second compound 3.16 µM, first compound 0.0999 µM): 52.8%
viability, T/C [27]: 55%
viability, T/C (second compound 10 µM, first compound 0.000999 µM): 42.9%
viability, T/C (second compound 10 µM, first compound 0.00316 µM): 38%
viability, T/C (second compound 10 µM, first compound 0.00999 µM): 62.9%
viability, T/C [31]: 47%
viability, T/C (second compound 10 µM, first compound 0.0999 µM): 50.3%
viability, T/C [33]: 52.1%

Cc1cccc(N(C)C(=O)C2C(O)CCN2c2nc(C)cc(C(F)(F)F)c2C#N)c1 (stereo not drawn) + Cc1cnc(CNC(=O)c2c(=O)c3ccc(N4CCCN(C)CC4)nc3n3c2sc2ccccc23)cn1
IC50 (second compound 0.0316 µM): > 10000 nM
IC50 (second compound 0.1 µM): > 10000 nM
IC50 (second compound 0.316 µM): > 10000 nM
IC50 (second compound 1 µM): 1980 nM
IC50 (second compound 3.16 µM): 34.2 nM
IC50 (second compound 10 µM): 76.2 nM
viability, T/C [1]: 87.7%
viability, T/C [2]: 70.2%
viability, T/C [3]: 62.9%
viability, T/C [4]: 75.9%
viability, T/C [5]: 70.7%
viability, T/C [6]: 81.6%
viability, T/C [7]: 67.2%
viability, T/C [8]: 72.2%
viability, T/C [9]: 76%
viability, T/C [10]: 62%
viability, T/C [11]: 50%
viability, T/C [12]: 78.8%
viability, T/C [13]: 82.5%
viability, T/C [14]: 79.8%
viability, T/C [15]: 59.8%
viability, T/C [16]: 52.8%
viability, T/C [17]: 65.5%
viability, T/C [18]: 49.3%
viability, T/C [19]: 71.6%
viability, T/C [20]: 62.1%
viability, T/C [21]: 52.4%
viability, T/C [22]: 56.1%
viability, T/C [23]: 50.5%
viability, T/C [24]: 44.2%
viability, T/C [25]: 48.9%
viability, T/C [26]: 50%
viability, T/C [27]: 45.5%
viability, T/C [28]: 36.2%
viability, T/C [29]: 46.1%
viability, T/C [30]: 40.9%
viability, T/C [31]: 50.6%
viability, T/C [32]: 54.8%
viability, T/C [33]: 44.4%
viability, T/C [34]: 41.2%
viability, T/C [35]: 43.2%
viability, T/C [36]: 43.4%

O=C(c1cc(Cc2n[nH]c(=O)c3ccccc23)ccc1F)N1CCN(C(=O)C2CC2)CC1 + Cc1cnc(CNC(=O)c2c(=O)c3ccc(N4CCCN(C)CC4)nc3n3c2sc2ccccc23)cn1
IC50 (second compound 0.0316 µM): > 10000 nM
IC50 (second compound 0.1 µM): > 10000 nM
IC50 (second compound 0.316 µM): > 10000 nM
IC50 (second compound 1 µM): > 10000 nM
IC50 (second compound 3.16 µM): < 31.6 nM
IC50 (second compound 10 µM): < 31.6 nM
viability, T/C [1]: 92.2%
viability, T/C [2]: 89.5%
viability, T/C [3]: 89.7%
viability, T/C [4]: 81.5%
viability, T/C [5]: 64.2%
viability, T/C [6]: 74.7%
viability, T/C [7]: 52.6%
viability, T/C [8]: 65.7%
viability, T/C [9]: 65.3%
viability, T/C [10]: 58.8%
viability, T/C [11]: 48.3%
viability, T/C [12]: 74.5%
viability, T/C [13]: 82.6%
viability, T/C [14]: 72.4%
viability, T/C [15]: 50.3%
viability, T/C [16]: 47.6%
viability, T/C [17]: 52.9%
viability, T/C [18]: 60.6%
viability, T/C [19]: 68.6%
viability, T/C [20]: 67.5%
viability, T/C [21]: 48.3%
viability, T/C [22]: 64.4%
viability, T/C [23]: 45.5%
viability, T/C [24]: 54.6%
viability, T/C [25]: 60%
viability, T/C [26]: 31.8%
viability, T/C [27]: 39.6%
viability, T/C [28]: 39.2%
viability, T/C [29]: 47.4%
viability, T/C [30]: 41.2%
viability, T/C [31]: 47.9%
viability, T/C [32]: 46.5%
viability, T/C [33]: 49.7%
viability, T/C [34]: 44.6%
viability, T/C [35]: 49%
viability, T/C [36]: 57.2%
